Data from patent US20100190849A1, “Novel Clerodanes and Methods for Repelling Arthropods” (priority 2006, published 2010).
Marks after values point to notes of the source that are not given here.

Experiments:
Aedes aegypti [1] = assay: K & D module mosquito anti-biting (repellent) bioassay; format: in vivo
Description: Insects: Ae. aegypti(L.) (red eye Liverpool strain) and An. stephensi Liston used in the study were from colonies maintained at the Walter Reed Army Institute of Research, Silver Spring, Md. […] Adults were maintained in a photoperiod of 12:12 (L:D) h at 27° C. and 80% RH with cotton pads moistened with 10% aqueous sucrose solution. Mated females were 5-15 d old when they were used in bioassays. Ae. aegypti females had access only to water 24 h and neither food nor water for another 24 h before testing. An. stephensi females were provided with water alone 24 h before testing.
Routinely, a six-celled K & D module containing five mosquitoes/cell was positioned over cloth treatments covering the six blood-membrane wells, and trap doors of the K&D modules were opened to expose the treatments to the sets of mosquitoes. After a 3 minute exposure, the number of mosquitoes biting through cloth treatments in each cell was recorded and mosquitoes were prodded back into the cells. […] Experiments were replicated 12, 18, 32, or 56 times. Thus, 60, 90, 160. or 280 mosquitoes were tested against each treatment depending on the experiment, and the proportion of mosquitoes not biting for each treatment was calculated. For each experiment, conducted in different time periods, logistic regression was used to make two sets of one degree-of-freedom contrasts (t-tests): treatments vs. control and treatments vs. SS220 for anti-biting activity within each experiment. The level of significance was set at P=0.05. In all, we conducted 8 biological experiments, and all experiments used Ae. aegypti as the test mosquito with exception of Experiment 7 which used An. stephensi.
Each experiment was replicated 18 times.
Experiments 3, 4, and 5: In each of these experiments, chromatographic fractions of essential oil at their respective percentage compositions of 100 μg essential oil/cm^2 cloth, 100 μg unfractionated essential oil/cm^2 cloth, 25 nmol SS-220/cm^2 cloth and control were compared for mosquito anti-biting activity. Each experiment was replicated 18 times.
(§1) Experiments 6 and 7: These experiments compared the anti-biting activities of SS-220, and plant-isolated callicarpenal, humulene epoxide II, intermedeol and spathulenol at 25 nmol compound/cm^2 cloth versus control against Ae. aegypti and An. stephensi, respectively. Experiment 6 was replicated 32 times and 7 had 56 replicates
The percentage composition of the mixture was a normalized percentage of active components in C. japonica essential oil based upon GC-MS analysis total ion Area % analysis based on largest peaks. Other treatments in the experiment were SS220, callicarpenal, intermedeol, and spathulenol each at 25 nmol/cm^2 cloth versus control.

Anopheles stephensi = assay: as above; format: in vivo; conditions: 25 nmol compound/cm^2 cloth; for Proportion Not Biting: Exp. 7, 56 replicates; for repellent activity (in words): Experiment 7
Source text: Insects: Ae. aegypti(L.) (red eye Liverpool strain) and An. stephensi Liston used in the study were from colonies maintained at the Walter Reed Army Institute of Research, Silver Spring, Md. The insects were reared by feeding larvae ground tropical fish flakes (Tetramin Tropical Fish Flakes, Tetra Sales, Blacksburg, Va., www.tetra-fish.com)(Gerberg, E. j., et al., Manual for mosquito rearing and experimental techniques. Amer. Mosq. Control Assoc. Bull. No. 5 (revised), 1994, AMCA. inc., Lake Charles, La.). Adults were maintained in a photoperiod of 12:12 (L:D) h at 27° C. and 80% RH with cotton pads moistened with 10% aqueous sucrose solution. Mated females were 5-15 d old when they were used in bioassays. Ae. aegypti females had access only to water 24 h and neither food nor water for another 24 h before testing. An. stephensi females were provided with water alone 24 h before testing.
Mosquito Bioassay Methods: Experiment were conducted by using, a six-celled in vitro Klun & Debboun (K & D) module bioassay system developed by klun et al. (Klum J. A., et al., Journal of the American Mosquito Control Association. 21: 64-70 (2005)) for quantitative, evaluation of mosquito-repellent (anti-biting) properties of candidate repellent compounds for human use.
(§2) Plant extracts, fractions, or isolated pure plant derived compounds in 95% ethanol solution were each randomly applied to six-4×5 cm areas of organdy cloth and positioned over the membrane-covered blood. A replicate consisted of six treatments: four test chemicals or extract fractions, 95% ethanol treated cloth as control and unfractionated plant extract or a standard repellent compound, (1S, 2′S)-2-methylpiperidinyl-3-cyclohexen-1-carboxamide (SS220) at 25 nmol/cm^2 cloth. The 25 nmol SS220/cm^2 cloth dose was used as a standard, because it was known from human volunteer and in vitro assays to consistently suppress mosquito biting by 80% or more compared to controls in replicated assays (Klun, J. A., et al., Journal of the American Mosquito Control Association, 21: 64-70 (2005)). […] Routinely, a six-celled K & D module containing five mosquitoes/cell was positioned over cloth treatments covering the six blood-membrane wells, and trap doors of the K&D modules were opened to expose the treatments to the sets of mosquitoes. After a 3 minute exposure, the number of mosquitoes biting through cloth treatments in each cell was recorded and mosquitoes were prodded back into the cells. In Experiment 8, we retained all mosquitoes in their respective K&D module cells, each fitted with a water-moist piece of cotton, and observed the mosquitoes for total mosquito toxic knockdown at 6 min, 1 hr, and 24 hr post-treatment exposure. Experiments were replicated 12, 18, 32, or 56 times. Thus, 60, 90, 160. or 280 mosquitoes were tested against each treatment depending on the experiment, and the proportion of mosquitoes not biting for each treatment was calculated. For each experiment, conducted in different time periods, logistic regression was used to make two sets of one degree-of-freedom contrasts (t-tests): treatments vs. control and treatments vs. SS220 for anti-biting activity within each experiment. The level of significance was set at P=0.05. In all, we conducted 8 biological experiments, and all experiments used Ae. aegypti as the test mosquito with exception of Experiment 7 which used An. stephensi.
as §1

Aedes aegypti [2] = assay: Total mosquito toxic knockdown after K & D module exposure (Experiment 8); format: in vivo; conditions: Exp. 8, 25 nmol/cm^2 cloth; for Total Knock down 6 min: dead mosquitoes 6 min post-treatment exposure; for Total knock down 1 hr: dead mosquitoes 1 hr post-treatment exposure; for Total knock down 24 hr: dead mosquitoes 24 hr post-treatment exposure
Source text: as §2
Experiment 8: This experiment (12 replicates) compared the antibiting activities of a mixture (25 nmol/cm^2 cloth) of 11.5% callicarpenal, 47.1% intermedeol, and 41.4% spathulenol. The percentage composition of the mixture was a normalized percentage of active components in C. japonica essential oil based upon GC-MS analysis total ion Area % analysis based on largest peaks. Other treatments in the experiment were SS220, callicarpenal, intermedeol, and spathulenol each at 25 nmol/cm^2 cloth versus control. In addition to measurement of anti-biting activity, the number of dead mosquitoes observed at three time intervals were recorded for the six treatments.

mosquito = conditions: 25 nmol SS220/cm^2 cloth; replicated assays; cited from earlier work
An. stephensi = conditions: in vivo; cited from earlier work
Aedes aegypti [3] = conditions: in vivo; cited from earlier work
[4] = Table 7, Example 2, synthetic compounds, dose not given
[5] = Exp. 6, 25 nmol compound/cm^2 cloth, 32 replicates
[6] = Exp. 8, 25 nmol/cm^2 cloth, 12 replicates
[7] = Experiment 6, 25 nmol compound/cm^2 cloth
[8] = Table 8, Example 3, synthetic compounds, dose not given

In the case of `CC1=CCC[C@@H]2[C@@](C)(CCO)[C@H](C)CC[C@@]12C` [13,14,15,16-tetranorclerod-3-en-12-ol], the “biting deterrent efficacy (in words)” value (Aedes aegypti [1]; Example 2, Table 7) is reported as “equivalent to both callicarpenal and picaridin” and the “Proportion Not Biting” value (Aedes aegypti [1]; [4]) is reported as 0.68^b.
In the case of `C[C@H]1CCCCN1C(=O)[C@@H]1CC=CCC1` [SS220, (1S, 2′S)-2-methylpiperidinyl-3-cyclohexen-1-carboxamide, reference compound], the “Proportion Not Biting” value (Aedes aegypti [1]; Exp. 1, 25 nmole/cm^2 cloth, 3 minute exposure) is reported as 0.81^c, the “Proportion Not Biting” value (Aedes aegypti [1]; Exp. 2, 25 nmole/cm^2 cloth) is reported as 0.90^c and the “Proportion Not Biting” value (Aedes aegypti [1]; Exp. 3, 25 nmole/cm^2) is reported as 1.00^c. For the same compound, the “Proportion Not Biting” value (Aedes aegypti [1]; Exp. 4, 25 nmole/cm^2) was 0.92^c, the “Proportion Not Biting” value (Aedes aegypti [1]; Exp. 5, 25 nmole/cm^2) was 0.95^c and the “Proportion Not Biting” value (Aedes aegypti [1]; [5]) was 0.80^c. For the same compound, the “Proportion Not Biting” value (Aedes aegypti [1]; [6]) was 0.67^c, the “Proportion Not Biting” value (Anopheles stephensi) was 0.78^c and the “Total Knock down 6 min” value (Aedes aegypti [2]) was 0. The “Total knock down 1 hr” value (Aedes aegypti [2]) was 1, the “Total knock down 24 hr” value (Aedes aegypti [2]) was 2 and the “suppression of mosquito biting compared to controls” value (mosquito) was at least 80%. For the same compound, the “repellent activity compared with bench mark repellents (in words)” value (An. stephensi) was “equivalent to bench mark repellent compounds Deet and Bayrepel” and the “repellent activity compared with bench mark repellents (in words)” value (Aedes aegypti [3]) was “more effective than Bayrepel”.
In the case of `C/C1=C\CC(C)(C)/C=C/C[C@@]2(C)O[C@@H]2CC1` [humulene epoxide II], the “Proportion Not Biting” value (Aedes aegypti [1]; [5]) is reported as 0.48^a, the “repellent activity (in words)” value (Aedes aegypti [1]; [7]) is reported as “no repellent activity” and the “Proportion Not Biting” value (Anopheles stephensi) is reported as 0.58^a. For the same compound, the “repellent activity (in words)” value (Anopheles stephensi) was “not different from the control”.
For `CCC(C)OC(=O)N1CCCCC1CCO` (stereo not shown) [picaridin, 2-(2-hydroxyethyl)-1piperidinecarboxylic acid 1-methylpropyl ester, reference compound], the “Proportion Not Biting” value (Aedes aegypti [1]; [4]) was 0.62^b.
In the case of `C=C1CC[C@@H]2[C@H]([C@H]3[C@H]1CC[C@]3(C)O)C2(C)C` [spathulenol, (1R,4S,5R,6R,7R)-aromadendr-10(14)-en-4-ol], the “Proportion Not Biting” value (Aedes aegypti [1]; [5]) is reported as 0.73^c, the “Proportion Not Biting” value (Aedes aegypti [1]; [6]) is reported as 0.48^b and the “repellent activity (in words)” value (Aedes aegypti [1]; [7]) is reported as “equally active”. For the same compound, the “repellent activity (in words)” value (Aedes aegypti [1]; Experiment 8, 25 nmol/cm^2 cloth) was “significantly different from the control”, the “Proportion Not Biting” value (Anopheles stephensi) was 0.75^c and the “repellent activity (in words)” value (Anopheles stephensi) was “as effective as SS220”. The “Total Knock down 6 min” value (Aedes aegypti [2]) was 1, the “Total knock down 1 hr” value (Aedes aegypti [2]) was 2 and the “Total knock down 24 hr” value (Aedes aegypti [2]) was 0.
In the case of `C[C@@H]1CC[C@]2(C)[C@H](CC[C@@H]3O[C@@]32C)[C@@]1(C)CC=O` [β-epoxycallicarpenal], the “biting deterrent efficacy (in words)” value (Aedes aegypti [1]; Example 3, Table 8) is reported as “equivalent to callicarpenal” and the “Proportion Not Biting” value (Aedes aegypti [1]; [8]) is reported as 0.70^b.
In the case of α-epoxycallicarpenal, the “biting deterrent efficacy (in words)” value (Aedes aegypti [1]; Example 3, Table 8) is reported as “equivalent to callicarpenal” and the “Proportion Not Biting” value (Aedes aegypti [1]; [8]) is reported as 0.68^b.
